Measurements reported in EP1733758A1, “Methods for administration of a farnesyl dibenzodiazepinone” (Ecopia Biosciences Inc., priority 2005, dated 2006).

What was measured:
[1] = Toxicity of 14-day continuous intravenous infusion in rats; type: in vivo; settings: 14-day infusion, all treated and control groups, toxicity was due to the vehicle
Description: Sprague-Dawley rats received an intravenous continuous infusion over 14 days of Formula I at 25 mg/kg/day, 50 mg/kg/day, or 75 mg/kg/day at a rate of 2 mL/kg/h for 14 consecutive days (same formulation as in Example 7). Blood was collected from the jugular vein in tubes containing K2 EDTA from 3 rats/sex/group at the following time points: 2, 6, and 12 hours after the start of dosing on Day 1, on Day 2 at 6 hours (approximately 30 hours after the start of dosing), on Days 6 and 10 at 6 hours, and on Day 15, 1 hour prior the end of dosing, and then at 5 min, 15 min, 30 min, 1 h, and 2 h after the end of dosing.
The toxicity was due to the vehicle and was attributed to smaller size of infusion vessels, and concurrent catheter tract infection.

[2] = Toxicity of 14-day continuous intravenous infusion in monkeys; type: in vivo
Description: Cynomolgus monkeys received continuous IV infusion over 14 days of Formula I at 5 mg/kg/day, 15 mg/kg/day, or 30 mg/kg/day. The drug was infused intravenously (24 hours/day) into the femoral vein at a dose rate of 2 ml/kg/hour for 14 consecutive days. Blood samples were removed from each monkey on Days 1, 2, 6, 10, and 15 of the treatment period. Monkeys were bled by venipuncture and samples were collected into tubes containing K2EDTA. On Day 1, samples were collected at 2, 6, and 12 hours after initiation of treatment. Additional samples were collected at 30 hours after the start of infusion (Day 2). On Days 6 and 10, samples were collected at approximately 6 hours after the bag changes. At the end of the 14 days of infusion, on Day 15, samples were collected at 1 hour prior to cessation of dose administration, and at 5 min, 30 min, 1 h, 2 h, 4 h, 8 h, and 24 h following cessation of dose administration.

[3] = system: P388 murine leukemia cells; assay: Murine P388 leukemia survival model; type: in vivo
Description: Formulation: The compound of Formula I is first dissolved in 1 volume of 90% propylene glycol (PG). This is followed by the addition of 2 volumes of 45% polyethylene glycol 400 (PEG 400). The volume ratio of PEG 400/PG/water is respectively 30:30:40. Compound is injected in a volume of 10 mL/kg.
DBA/2 female mice (6 weeks of age) were injected intraperitoneally (IP) with 1 x 10^6 P388 murine leukemia cells (day 0). Mice were randomized in 4 groups (10 mice per group) at Day 1 and treated with the following dose and schedule. Group 1: IV injection of vehicle (PEG/PG formulation) on D1 and D8, daily IP administration of vehicle from D2 to D7 and from D9 to D10 Group 2: IV injection of the compound of Formula I in PEG-PG formulation at 50 mg/kg on D1 followed by daily IP administration of the compound of Formula I in PEG-PG formulation at 10 mg/kg from D2 to D4 and from D6 to D12 Group 3: Daily IP administration of the compound of Formula I in PEG-PG formulation at 10 mg/kg from D1 to D4 and from D8 to D14
Mice body weights were recorded twice a week. Lethality and behaviour of animals were recorded every day. All vehicle control mice died between D8 to D10 from peritoneal carcinomatosis associated with ascites. Three (3) mice from group 2 died one day after treatment due to formulation toxicity. The remaining seven (7) died between days 8 and 12. Mice from group 3 died between days 8 and 12. The results are expressed as percent of mean survival time of treated animals over the mean survival time of the control group (treated vs control, T/C%) and as increase life span (mean survival time of treated animals minus that of control animals over the mean survival time of the control group; ILS%).

[4] = Pharmacokinetics and tissue distribution after bolus IV, IP, SC and PO administration in mice; type: in vivo, female Crl: CD1 mice; settings: daily bolus administrations of 30 mg/kg (SC) or 20 mg/kg (IP)
[5] = Population pharmacokinetic analysis (NONMEM), monkey; type: in vivo; settings: for clearance: monkey, plasma, intravenous; for clearance / mean steady-state plasma concentration: monkeys, 14-day continuous infusion
Description: An analysis was performed to derive allometric equations for Formula I pharmacokinetic parameters using Formula I plasma concentration-time data from three species, including mouse, rat, and monkey, and to estimate human pharmacokinetic parameters from those allometric equations.
Plasma concentrations of Formula I were obtained from mice, rats, and monkeys following intravenous injection or continuous infusion. Formula I pharmacokinetic parameters in mice, rats, and monkeys were estimated using population pharmacokinetic analysis, a function of the software program NONMEM™ (version 5). Typical population pharmacokinetic parameters for Formula I in humans were extrapolated from allometric equations that were derived from pharmacokinetic parameters estimated in the three animal species.
A two-compartment model with a first-order elimination from the central compartment adequately described Formula I plasma concentration-time profiles following intravenous bolus injection (30 mg/kg) in mice and rats, 7-day continuous infusion in rats (50 to 170 mg/kg/day), and 14-day continuous infusion in monkeys (5 to 30 mg/kg/day).
Application of a two-compartment model with Michaelis-Menten elimination better described the concentration data in monkeys than the linear model. Because the target concentration in humans is 2 µM, at which linear pharmacokinetics is assumed, all simulations for human plasma concentrations were performed based on a two-compartment model with linear first-order elimination.

[6] = Grp 2: IV 50 mg/kg (D1), IP 10 mg/kg (D2-4 & D6-12)
[7] = Grp 3: IP 10 mg/kg (D1-4 & D8-14)
[8] = Monkey (CIV), typical population PK parameter
[9] = 5 mg/kg/day (Example 9 analysis)
[10] = 15 mg/kg/day (Example 9 analysis)
[11] = 30 mg/kg/day (Example 9 analysis)

With CC(C)=CCC/C(C)=C/CC/C(C)=C/CN1C(=O)c2cccc(O)c2Nc2c(O)cc(O)cc21 [Formula I, 10-farnesyl-4,6,8-trihydroxy-dibenzodiazepin-11-one] the infusion site findings [1] was “necrotization and inflammatory lesions at the site of infusion”, the compound associated toxicity [2] was “no severe compound associated toxicity was observed” and the “degenerative changes in any organs, including the infusion site” value [2] was “No degenerative changes”. For the same molecule, the “effect on body weight, ocular condition, electrocardiographic activity and other parameters assessed” value [2] was “no effect”, the “histological observations, reflected clearance of the vehicle used” value [2] was “Diffuse vacuolization of hepatocytes and accumulation of foamy histiocytes (macrophages) in the spleen” and the “side effects (reversible)” value [2] was “inappetance and a moderate degree of regenerative anemia”. For the same molecule, the “% ILS” value [3, 6] was 33%, the “%T/C” value [3, 6] was 133.3% and the “Mean Survival Days ± SD” value [3, 6] was 11 ± 1.5 days. The Median survival [3, 6] was 12, the “% ILS” value [3, 7] was 38.9% and the “%T/C” value [3, 7] was 138.9%. The “Mean Survival Days ± SD” value [3, 7] was 12.6 ± 4.9 days, the Median survival [3, 7] was 12.5 and the “mice died one day after treatment due to formulation toxicity” value ([3]; group 2 (10 mice), IV 50 mg/kg in PEG-PG formulation on D1) was 3 mice. It also gave a sustained plasma concentrations [4] of 1 to 2 µM, a Q ([5]; Monkey (CIV), WT 3.8 Kg) of 0.151 L/h and a V1 ([5]; Monkey (CIV), WT 3.8 Kg) of 0.771 L. The V2 ([5]; Monkey (CIV), WT 3.8 Kg) was 1.59 L, the Ke [5, 8] was 2.172 h⁻¹ and the Q [5, 8] was 0.663 mL/min/kg. The V1 [5, 8] was 0.203 L/kg, the V2 [5, 8] was 0.419 L/kg and the clearance [5, 9] was 10.5 mL/min/kg. The clearance [5, 10] was 9.5 mL/min/kg, the clearance [5, 11] was 3.83 mL/min/kg and the “mean steady-state plasma concentration” value [5, 9] was 0.75 µM. The “mean steady-state plasma concentration” value [5, 10] was 2.57 µM and the “mean steady-state plasma concentration” value [5, 11] was 14.07 µM.
